From ChEMBL document CHEMBL1221220, “Transport and signaling via the amino acid binding site of the yeast Gap1 amino acid transceptor” (Nat Chem Biol, 2009)
One block for each molecule: values may come before it. Activity calls are given as the source filed them. The rule behind the calls is not given here. Residues, ends and D or L forms follow the SMILES beside them.

Experiments:
[1] = target: T1, General amino-acid permease GAP1 (Saccharomyces cerevisiae) (UniProt P19145); experiment: Induction of nitrogen-starved wild type sigma1278b yeast Gap1-mediated […] activation at 10 mM
T1 sequence (whole entry): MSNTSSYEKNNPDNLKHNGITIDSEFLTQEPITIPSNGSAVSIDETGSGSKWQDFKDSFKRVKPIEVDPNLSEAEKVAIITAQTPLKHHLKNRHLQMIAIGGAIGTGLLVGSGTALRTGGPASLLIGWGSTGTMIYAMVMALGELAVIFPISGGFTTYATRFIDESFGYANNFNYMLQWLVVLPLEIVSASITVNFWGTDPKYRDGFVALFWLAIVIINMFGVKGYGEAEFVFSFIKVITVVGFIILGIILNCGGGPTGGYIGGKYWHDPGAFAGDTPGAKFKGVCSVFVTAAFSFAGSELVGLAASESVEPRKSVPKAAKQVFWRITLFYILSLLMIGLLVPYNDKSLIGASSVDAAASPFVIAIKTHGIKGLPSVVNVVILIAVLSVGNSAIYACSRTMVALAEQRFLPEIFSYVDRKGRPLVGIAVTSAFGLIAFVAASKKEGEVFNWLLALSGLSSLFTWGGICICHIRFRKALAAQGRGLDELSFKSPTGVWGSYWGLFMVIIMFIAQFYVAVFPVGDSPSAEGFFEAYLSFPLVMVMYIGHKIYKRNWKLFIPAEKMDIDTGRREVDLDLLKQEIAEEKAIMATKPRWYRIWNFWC

[2] = target: T2, General amino-acid permease GAP1 (Saccharomyces cerevisiae, UniProt P19145); experiment: Noncompetitive inhibition of nitrogen-starved wild type sigma1278b Gap1-mediated amino acid transport by Lineweaver-Burke plot analysis
T2 sequence (P19145 whole entry): T1 sequence (whole entry)

[3] = target: T1, General amino-acid permease GAP1 (Saccharomyces cerevisiae); experiment: Noncompetitive inhibition of nitrogen-starved wild type sigma1278b yeast Gap1-mediated amino acid uptake at 5 mM after 60 secs relative to L-citrulline
[4] = target: T1, General amino-acid permease GAP1 (Saccharomyces cerevisiae); experiment: Induction of nitrogen-starved wild type sigma1278b yeast Gap1-mediated […] activation at 5 mM in presence of 10 mM MTSEA treated before compound addition
[5] = target: T2, General amino-acid permease GAP1; experiment: Competitive inhibition of nitrogen-starved wild type sigma1278b yeast Gap1 by Lineweaver-Burke plot analysis
[6] = target: T1, General amino-acid permease GAP1 (Saccharomyces cerevisiae); experiment: Induction of nitrogen-starved wild type sigma1278b yeast Gap1-mediated amino acid uptake at 5 mM after 90 mins
[7] = target: T1, General amino-acid permease GAP1 (Saccharomyces cerevisiae); experiment: Induction of nitrogen-starved wild type sigma1278b yeast Gap1-mediated […] activation at 5 mM
[8] = target: T1, General amino-acid permease GAP1 (Saccharomyces cerevisiae); experiment: Competitive inhibition of nitrogen-starved wild type sigma1278b yeast Gap1-mediated amino acid uptake at 5 mM after 60 secs relative to L-citrulline
[9] = target: T1, General amino-acid permease GAP1 (Saccharomyces cerevisiae); experiment: Inhibition of L-Arg-L-Gly-L-Gly-induced nitrogen-starved wild type sigma1278b yeast Gap1
[10] = target: T1, General amino-acid permease GAP1 (Saccharomyces cerevisiae); experiment: Inhibition of nitrogen-starved wild type sigma1278b yeast Gap1 assessed as reduction of L-citrulline-mediated trehalose activation at 5 to 10 mM
[11] = substrate: NC(=O)NCCC[C@H](N)C(=O)O; experiment: Activity at nitrogen-starved wild type sigma1278b Gap1; settings: Saccharomyces cerevisiae

Activity [1]: Active | Ki [2]: 12000 µM | inhibition [3]: > 30%
Molecule: N=C(N)NCCC[C@H](N)C(=O)N[C@@H](Cc1ccccc1)C(=O)N[C@@H](Cc1ccccc1)C(=O)O (H-Arg-Phe-Phe-OH)

inhibition [9]: inactive | inhibition [10]: Active | Ki [5]: 105 µM | Activity [6]: inactive
Molecule: N[C@@H](CC(=O)N[C@@H](CCC(=O)O)c1ccccc1)C(=O)O

The remaining lines, values behind:

Molecule: CC(C)C[C@H](N)C(=O)NCC(=O)O (H-Leu-Gly-OH)
Activity [4]: inactive | Ki [5]: 190 µM | Activity [6]: inactive | Activity [7]: Active | inhibition [8]: > 30%

Molecule: CSCC[C@H](NC(=O)[C@@H](N)CC(C)C)C(N)=O (H-Leu-Met-NH2)
Activity [1]: inactive | Ki [2]: 5000 µM | inhibition [3]: > 30%

B1: General amino-acid permease GAP1 (Saccharomyces cerevisiae), P19145 (protein)
chain: T1 sequence (whole entry)
Km [11]: 37 µM
